Reference: US6737383B1, “Herbicidal oxadiazolidines” (priority 1999, dated 2004)

Columns and labels:
blackgrass [1] = test: Test B pre/postemergence blackgrass; type: in vivo, Alopecurus myosuroides
In short: (§1)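 Response is a visual 0-to-10 score relative to untreated plants, where 0 means no effect and 10 means complete control, taken twelve to sixteen days after application. Treatments went onto soil at planting and onto foliage of 1- to 4-leaf plants, using a surfactant-containing non-phytotoxic solvent.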

winter barley = test: Test E winter barley; type: in vivo, Hordeum vulgare; conditions: Preemergence
blackgrass [2] = test: Test E blackgrass; type: in vivo, Alopecurus myosuroides; conditions: Preemergence
Italian ryegrass = test: Test E Italian ryegrass; type: in vivo, Lolium multiflorum; conditions: Preemergence
winter wheat [3] = test: Test E winter wheat; type: in vivo, Triticum aestivum; conditions: Preemergence
wild oat = test: Test E wild oat; type: in vivo, Avena fatua; conditions: Preemergence
bamyardgrass = test: Test B flood test barnyardgrass; type: in vivo, Echinochloa crus-galli
In short: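 Flood test on plants grown to the 2-leaf stage; treated plants kept in greenhouse twelve to sixteen days, then visually rated against controls on a 0 (no effect) to 10 (complete control) scale.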

winter wheat [4] = test: Test E winter wheat; type: in vivo, Triticum aestivum; conditions: Postemergence
In short: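 Compound formulated with surfactant in a non-phytotoxic solvent (postemergence: young 1- to 4-leaf plants); held in greenhouse approx. 21–28 days; visual assessment against untreated plants.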

green foxtail = test: Test E green foxtail; type: in vivo, Setaria viridis; conditions: Preemergence
surinam grass = test: Test B pre/postemergence surinam grass; type: in vivo, Brachiaria decumbens
In short: as §1

bedstraw = test: Test B pre/postemergence bedstraw; type: in vivo, Galium aparine
In short: as §1

[5] = Postemergence, Rate 125 g/ha, scale of 0 to 10 where 0 is no effect and 10 is complete control
[6] = Postemergence, Rate 1000 g/ha, scale 0 to 10 (0 no effect, 10 complete control)
[7] = Preemergence, Rate 62 g/ha, scale of 0 to 10 where 0 is no effect and 10 is complete control
[8] = Preemergence, Rate 125 g/ha, 0 is no effect, 10 is complete control
[9] = Preemergence, Rate 250 g/ha, scale 0 to 10, 0 is no effect, 10 is complete control
[10] = Preemergence, Rate 500 g/ha, scale 0 to 10 (0 no effect, 10 complete control)
[11] = Rate 62 g/ha, Postemergence, scale of 0 to 10 where 0 is no effect and 10 is complete control
[12] = Rate 250 g/ha, Postemergence, scale 0 to 10, 0 is no effect, 10 is complete control
[13] = Rate 500 g/ha, Postemergence, scale 0 to 10
[14] = Rate 1000 g/ha, Preemergence, scale 0 to 10 (0 no effect, 10 complete control)
[15] = Rate 2000 g/ha, Postemergence, scale 0 to 10
[16] = Rate 2000 g/ha, Preemergence, scale 0 to 10
[17] = Rate 2000 g/ha, 0 to 100 scale, 0 is no effect and 100 is complete control
[18] = Rate 500 g/ha, 0 to 100 scale where 0 is no effect and 100 is complete control
[19] = Rate 1000 g/ha, 0 to 100 scale where 0 is no effect and 100 is complete control
[20] = Rate 250 g/ha, Pre-emergence, flood-test species, scale 0 to 10, 0 is no effect, 10 is complete control
[21] = Rate 500 g/ha, 0 to 100 scale, 0 is no effect, 100 is complete control
[22] = Rate 500 g/ha, Postemergence, scale 0 to 10, 0 no effect, 10 complete control
[23] = Postemergence, Rate 125 g/ha, scale 0 to 10, 0 is no effect, 10 is complete control
[24] = Preemergence, Rate 250 g/ha, scale of 0 to 10 where 0 is no effect and 10 is complete control
[25] = Preemergence, Rate 500 g/ha, scale of 0 to 10 where 0 is no effect and 10 is complete control
[26] = Rate 250 g/ha, Postemergence, scale of 0 to 10 where 0 is no effect and 10 is complete control
[27] = Rate 500 g/ha, 0 to 100 scale (0 no effect, 100 complete control)
[28] = Rate 1000 g/ha, 0 to 100 scale, 0 no effect, 100 complete control

CC(C)N(C(=O)n1oc(=O)n(N(C)c2ccccc2)c1=O)c1ccc(F)cc1 [Compound 177]
2: Blackgrass plant response rating (blackgrass [1]; [13])
60: Plant response rating, Barley (winter) (winter barley; [18]) | Plant response rating, Blackgrass (blackgrass [2]; [17]) | Plant response rating, Blackgrass (blackgrass [2]; [18]) | Plant response rating, Blackgrass (blackgrass [2]; [19]) | Plant response rating, I. Ryegrass (Italian ryegrass; [18]) | Plant response rating, I. Ryegrass (Italian ryegrass; [19]) | Plant response rating, Green foxtail (green foxtail; [18])
65: Plant response rating, I. Ryegrass (Italian ryegrass; [17]) | Plant response rating, Wheat (winter) (winter wheat [4]; Rate 1000 g/ha, 0 to 100 scale, 0 is no effect and 100 is complete control)
70: Plant response rating, Barley (winter) (winter barley; [19]) | Plant response rating, Wheat (winter) (winter wheat [3]; [17]) | Plant response rating, Wheat (winter) (winter wheat [3]; [18]) | Plant response rating, Wild oat (wild oat; [17]) | Plant response rating, Wheat (winter) (winter wheat [4]; [17]) | Plant response rating, Wheat (winter) (winter wheat [4]; [21])
5: Plant response rating, B. signalgrass (surinam grass; [14]) | Plant response rating, Bedstraw (bedstraw; [12])
85: Plant response rating, Green foxtail (green foxtail; [19])
9: Blackgrass plant response rating (blackgrass [1]; [16]) | B. signalgrass plant response rating (surinam grass; [16]) | Bedstraw plant response rating (bedstraw; [9])
100: Plant response rating, Green foxtail (green foxtail; [17])
7: Plant response rating, Blackgrass (blackgrass [1]; [14])
3: Blackgrass plant response rating (blackgrass [1]; [6])
0: Blackgrass plant response rating (blackgrass [1]; [5]) | Blackgrass plant response rating (blackgrass [1]; [7]) | Blackgrass plant response rating (0 to 10 scale) (blackgrass [1]; [8]) | Blackgrass plant response rating (blackgrass [1]; [11]) | Plant response rating, Blackgrass (blackgrass [1]; [12]) | Barnyardgrass plant response rating (bamyardgrass; Postemergence (flood test species), Rate 125 g/ha, scale of 0 to 10 where 0 is no effect and 10 is complete control) | Barnyardgrass plant response rating (bamyardgrass; Rate 62 g/ha, Postemergence section, flood test species, scale of 0 to 10 where 0 is no effect and 10 is complete control) | Plant response rating, Barnyardgrass (bamyardgrass; Rate 250 g/ha, Postemergence (flood test), scale 0 to 10, 0 is no effect, 10 is complete control) | Barnyardgrass plant response rating (bamyardgrass; [20]) | Plant response rating, Barnyardgrass (bamyardgrass; Rate 500 g/ha, headed Pre-emergence (flood test species), scale 0 to 10 (0 no effect, 10 complete control)) | Barnyardgrass plant response rating (bamyardgrass; Rate 500 g/ha, listed under Postemergence (flood test species), scale 0 to 10) | Barnyardgrass plant response rating (bamyardgrass; Rate 1000 g/ha, Pre-emergence (as headed), scale 0 to 10) | Barnyardgrass plant response rating (bamyardgrass; Rate 2000 g/ha, Pre-emergence (as headed), scale 0 to 10, 0 no effect, 10 complete control) | B. signalgrass plant response rating (surinam grass; [5]) | B. signalgrass plant response rating (surinam grass; [6]) | B. signalgrass plant response rating (surinam grass; [7]) | B. signalgrass plant response rating (0 to 10 scale) (surinam grass; [8]) | B. signalgrass plant response rating (surinam grass; [9]) | B. signalgrass plant response rating (surinam grass; [10]) | B. signalgrass plant response rating (surinam grass; [11]) | Plant response rating, B. signalgrass (surinam grass; [12]) | B. signalgrass plant response rating (surinam grass; [22]) | B. signalgrass plant response rating (surinam grass; [15]) | Bedstraw plant response rating (bedstraw; [5]) | Bedstraw plant response rating (bedstraw; [7]) | Bedstraw plant response rating (0 to 10 scale) (bedstraw; [8]) | Bedstraw plant response rating (bedstraw; [11])
50: Plant response rating, Wheat (winter) (winter wheat [3]; [19])
10: Bedstraw plant response rating (bedstraw; [10]) | Plant response rating, Bedstraw (bedstraw; [14]) | Bedstraw plant response rating (bedstraw; [16])
6: Blackgrass plant response rating (blackgrass [1]; [9]) | Blackgrass plant response rating (blackgrass [1]; [10]) | Blackgrass plant response rating (blackgrass [1]; [15]) | Bedstraw plant response rating (bedstraw; [13])
80: Plant response rating, Barley (winter) (winter barley; [17]) | Plant response rating, Wild oat (wild oat; [18]) | Plant response rating, Wild oat (wild oat; [19])

CC(C)N(C(=O)n1oc(=O)n(C2CCCCCC2)c1=O)c1ccc(F)cc1 [Compound 340]
1: B. signalgrass plant response rating (surinam grass; [24])
2: Blackgrass plant response rating (0 to 10 scale) (blackgrass [1]; Preemergence, Rate 125 g/ha) | B. signalgrass plant response rating (surinam grass; [25])
3: Blackgrass plant response rating (blackgrass [1]; [24]) | Plant response rating, Blackgrass (blackgrass [1]; [26]) | Bedstraw plant response rating (bedstraw; [11])
60: Plant response rating, Blackgrass (blackgrass [2]; [27]) | Plant response rating, I. Ryegrass (Italian ryegrass; [27]) | Plant response rating, Wheat (winter) (winter wheat [3]; [28]) | Plant response rating, Wild oat (wild oat; [28]) | Plant response rating, Wheat (winter) (winter wheat [4]; [19]) | Plant response rating, Green foxtail (green foxtail; [27])
10: Barnyardgrass plant response rating (bamyardgrass; [20])
5: Bedstraw plant response rating (bedstraw; [25])
7: Barnyardgrass plant response rating (bamyardgrass; Rate 62 g/ha, headed Pre-emergence (flood test species), scale 0 to 10 (0 no effect, 10 complete control)) | Plant response rating, Bedstraw (bedstraw; [23]) | Plant response rating, Bedstraw (bedstraw; [26])
8: Blackgrass plant response rating (blackgrass [1]; [25]) | Plant response rating, Blackgrass (blackgrass [1]; [22]) | Plant response rating, Bedstraw (bedstraw; [22])
85: Plant response rating, Blackgrass (blackgrass [2]; [28])
40: Plant response rating, Barley (winter) (winter barley; [27]) | Plant response rating, Wheat (winter) (winter wheat [3]; Rate 250 g/ha, 0 to 100 scale)
6: Barnyardgrass plant response rating (bamyardgrass; Rate 125 g/ha, Pre-emergence, flood test species, scale 0 to 10 where 0 is no effect and 10 is complete control)
100: Plant response rating, Green foxtail (green foxtail; [28])
50: Plant response rating, Barley (winter) (winter barley; Rate 250 g/ha, 0 to 100 scale, 0 no effect, 100 complete control) | Plant response rating, Barley (winter) (winter barley; [28]) | Plant response rating, Blackgrass (blackgrass [2]; Rate 250 g/ha, 0 to 100 scale) | Plant response rating, Wheat (winter) (winter wheat [3]; [27]) | Plant response rating, Wild oat (wild oat; Rate 250 g/ha, 0 to 100 scale) | Plant response rating, Wild oat (wild oat; [27])
65: Plant response rating, I. Ryegrass (Italian ryegrass; [28])
0: Plant response rating, Blackgrass (blackgrass [1]; [23]) | Blackgrass plant response rating (blackgrass [1]; [7]) | Blackgrass plant response rating (blackgrass [1]; [11]) | Plant response rating, B. signalgrass (surinam grass; [23]) | B. signalgrass plant response rating (surinam grass; [7]) | B. signalgrass plant response rating (0 to 10 scale, 0 is no effect, 10 is complete control) (surinam grass; Preemergence, Rate 125 g/ha) | B. signalgrass plant response rating (surinam grass; [11]) | Plant response rating, B. signalgrass (surinam grass; [26]) | Plant response rating, B. signalgrass (surinam grass; [22]) | Bedstraw plant response rating (bedstraw; [7]) | Bedstraw plant response rating (0 to 10 scale) (bedstraw; Preemergence, Rate 125 g/ha)
55: Plant response rating, I. Ryegrass (Italian ryegrass; Rate 250 g/ha, 0 to 100 scale) | Plant response rating, Wheat (winter) (winter wheat [4]; [21])
30: Plant response rating, Wheat (winter) (winter wheat [4]; Rate 250 g/ha, 0 to 100 scale, 0 is no effect, 100 is complete control) | Plant response rating, Green foxtail (green foxtail; Rate 250 g/ha, 0 to 100 scale)
9: Barnyardgrass plant response rating (bamyardgrass; Rate 500 g/ha, Pre-emergence, flood test species, scale 0 to 10 (0 no effect, 10 complete control))
